Reference: patent publication US6737383B1, “Herbicidal oxadiazolidines” (priority 1999, dated 2004)

Experiments:
tall mallow = assay: Test D tall mallow; format: in vivo, Malva sylvestris; settings: Preemergence, 0 to 100 scale
Procedure, shortened: (§1)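 Herbicide screen in the greenhouse. A non-phytotoxic solvent mixture with surfactant carried the test chemical; in pre-emergence tests it went onto the soil of pots seeded no more than a day earlier. Injury was scored by eye 14 to 21 days after application, 0 to 100.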

winter wheat [1] = assay: Test E winter wheat; format: in vivo, Triticum aestivum; settings: Postemergence; for Plant response rating, Wheat (winter): 0 to 100 scale
Procedure, shortened: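 For postemergence, plants at the 1- to 4-leaf stage, in a 60:40 mix of sandy loam and potting mix, treated with compound formulated in a surfactant-containing non-phytotoxic solvent. Visual assessment versus untreated controls followed roughly 21–28 days in the greenhouse.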

smallflower flatsedge = assay: Test B flood test smallflower flatsedge; format: in vivo, Cyperus difformis
Procedure, shortened: (§2)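 Each value is a visual injury score relative to controls, with 10 meaning complete control and 0 no effect. Evaluation took place twelve to sixteen days after the 2-leaf-stage plants were treated and kept in the greenhouse.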

winter barley = assay: Test E winter barley; format: in vivo, Hordeum vulgare; settings: Preemergence
blackgrass [2] = assay: Test B pre/postemergence blackgrass; format: in vivo, Alopecurus myosuroides; settings: for Blackgrass plant response rating (0 to 10 scale): 0 is no effect
Procedure, shortened: (§3)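 Response is a visual 0-to-10 score relative to untreated plants, where 0 means no effect and 10 means complete control, taken twelve to sixteen days after application. Treatments went onto soil at planting and onto foliage of 1- to 4-leaf plants, using a surfactant-containing non-phytotoxic solvent.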

wild oat [3] = assay: Test B pre/postemergence wild oat; format: in vivo, Avena fatua; settings: for Wild oats plant response rating (0 to 10 scale): 0 is no effect
Procedure, shortened: as §3

blackgrass [4] = assay: Test E blackgrass; format: in vivo, Alopecurus myosuroides; settings: Preemergence
bamyardgrass = assay: Test B flood test barnyardgrass; format: in vivo, Echinochloa crus-galli
Procedure, shortened: as §2

surinam grass = assay: Test D surinam grass; format: in vivo, Brachiaria decumbens; settings: Preemergence, 0 to 100 scale
Procedure, shortened: as §1

winter wheat [5] = assay: Test E winter wheat; format: in vivo, Triticum aestivum; settings: Preemergence
wild oat [6] = assay: Test E wild oat; format: in vivo, Avena fatua; settings: Preemergence
rice = assay: Test B flood test rice; format: in vivo, Oryza sativa
Procedure, shortened: as §2

Johnson grass = assay: Test D Johnson grass; format: in vivo, Sorghum halepense; settings: Preemergence, 0 to 100 scale
Procedure, shortened: as §1

green foxtail = assay: Test E green foxtail; format: in vivo, Setaria viridis; settings: Preemergence
Italian ryegrass = assay: Test E Italian ryegrass; format: in vivo, Lolium multiflorum; settings: Preemergence
Alexandergrass = assay: Test D Alexandergrass; format: in vivo, Brachiaria plantaginea; settings: Preemergence, 0 to 100 scale
Procedure, shortened: as §1

[7] = Rate 16 g/ha, 0 no injury, 100 complete control
[8] = Rate 32 g/ha, 0 no injury, 100 complete control
[9] = Rate 64 g/ha, 0 no injury, 100 complete control
[10] = Rate 125 g/ha, 0 no injury, 100 complete control
[11] = Rate 62 g/ha, headed Pre-emergence (flood test species), scale 0 to 10 (0 no effect, 10 complete control)
[12] = Rate 125 g/ha, Pre-emergence, flood test species, scale 0 to 10 where 0 is no effect and 10 is complete control
[13] = Rate 250 g/ha, headed Pre-emergence (flood test species), scale 0 to 10 (0 no effect, 10 complete control)
[14] = Rate 500 g/ha, headed Pre-emergence (flood test species), scale 0 to 10 (0 no effect, 10 complete control)
[15] = Rate 62 g/ha, 0 to 100 scale, 0 no effect, 100 complete control
[16] = Rate 125 g/ha, 0 to 100 scale (0 no effect, 100 complete control)
[17] = Rate 500 g/ha, 0 to 100 scale where 0 is no effect and 100 is complete control
[18] = Postemergence, Rate 125 g/ha, scale of 0 to 10 where 0 is no effect and 10 is complete control
[19] = Preemergence, Rate 62 g/ha, scale 0 to 10 (0 no effect, 10 complete control)
[20] = Preemergence, Rate 125 g/ha, 10 is complete control
[21] = Preemergence, Rate 250 g/ha, scale 0 to 10, 0 is no effect, 10 is complete control
[22] = Preemergence, Rate 500 g/ha, scale 0 to 10 (0 no effect, 10 complete control)
[23] = Rate 62 g/ha, Postemergence, scale of 0 to 10 where 0 is no effect and 10 is complete control
[24] = Rate 250 g/ha, Postemergence, scale 0 to 10, 0 is no effect, 10 is complete control
[25] = Rate 500 g/ha, Postemergence, scale 0 to 10
[26] = Postemergence (flood test species), Rate 125 g/ha, scale of 0 to 10 where 0 is no effect and 10 is complete control
[27] = Rate 62 g/ha, Postemergence section, flood test species, scale of 0 to 10 where 0 is no effect and 10 is complete control
[28] = Rate 250 g/ha, Postemergence (flood test), scale 0 to 10, 0 is no effect, 10 is complete control
[29] = Rate 500 g/ha, listed under Postemergence (flood test species), scale 0 to 10
[30] = Rate 31 g/ha, 0 to 100 scale, 0 no effect, 100 complete control

CC(C)N(C(=O)n1oc(=O)n(C(C)C)c1=O)c1ccc(F)cc1 [Compound 131]
Plant response rating, Tall Mallow (tall mallow; [7]): 30
Plant response rating, Tall Mallow (tall mallow; [8]): 30
Tall Mallow plant response rating (tall mallow; [9]): 80
Tall Mallow plant response rating (tall mallow; [10]): 80
Plant response rating, Tall Mallow (tall mallow; Rate 250 g/ha): 90
Plant response rating, Tall Mallow (tall mallow; Rate 500 g/ha): 100
Plant response rating, Wheat (winter) (winter wheat [1]; Rate 62 g/ha): 50
Plant response rating, Wheat (winter) (winter wheat [1]; Rate 125 g/ha): 60
Plant response rating, Wheat (winter) (winter wheat [1]; Rate 500 g/ha, 0 no effect, 100 complete control): 20
Wheat (winter) plant response rating (winter wheat [1]; Rate 250 g/ha, 0 to 100 scale where 0 is no effect and 100 is complete control): 0
S. Flatsedge plant response rating (smallflower flatsedge; [11]): 0
S. Flatsedge plant response rating (smallflower flatsedge; [12]): 3
S. Flatsedge plant response rating (smallflower flatsedge; [13]): 8
Plant response rating, S. Flatsedge (smallflower flatsedge; [14]): 8
Plant response rating, Barley (winter) (winter barley; [15]): 40
Plant response rating, Barley (winter) (winter barley; [16]): 65
Barley (winter) plant response rating (0 to 100 scale) (winter barley; Rate 250 g/ha): 100
Plant response rating, Barley (winter) (winter barley; [17]): 100
Blackgrass plant response rating (blackgrass [2]; [18]): 8
Blackgrass plant response rating (blackgrass [2]; [19]): 10
Blackgrass plant response rating (0 to 10 scale) (blackgrass [2]; [20]): 10
Blackgrass plant response rating (blackgrass [2]; [21]): 10
Blackgrass plant response rating (blackgrass [2]; [22]): 10
Blackgrass plant response rating (blackgrass [2]; [23]): 8
Plant response rating, Blackgrass (blackgrass [2]; [24]): 8
Blackgrass plant response rating (blackgrass [2]; [25]): 9
Wild oats plant response rating (wild oat [3]; [18]): 3
Wild oats plant response rating (wild oat [3]; [19]): 10
Wild oats plant response rating (0 to 10 scale) (wild oat [3]; [20]): 10
Wild oats plant response rating (wild oat [3]; [21]): 10
Wild oats plant response rating (wild oat [3]; [22]): 10
Wild oats plant response rating (wild oat [3]; [23]): 2
Plant response rating, Wild oats (wild oat [3]; [24]): 9
Wild oats plant response rating (wild oat [3]; [25]): 10
Plant response rating, Blackgrass (blackgrass [4]; [15]): 60
Plant response rating, Blackgrass (blackgrass [4]; [16]): 50
Blackgrass plant response rating (0 to 100 scale) (blackgrass [4]; Rate 250 g/ha): 60
Plant response rating, Blackgrass (blackgrass [4]; [17]): 100
Barnyardgrass plant response rating (bamyardgrass; [11]): 0
Barnyardgrass plant response rating (bamyardgrass; [12]): 0
Barnyardgrass plant response rating (bamyardgrass; [13]): 9
Plant response rating, Barnyardgrass (bamyardgrass; [14]): 9
Plant response rating, Surinam grass (surinam grass; [7]): 20
Plant response rating, Surinam grass (surinam grass; [8]): 75
Surinam grass plant response rating (surinam grass; [9]): 85
Surinam grass plant response rating (surinam grass; [10]): 100
Plant response rating, Surinam grass (surinam grass; Rate 250 g/ha): 100
Plant response rating, Surinam grass (surinam grass; Rate 500 g/ha): 100
Plant response rating, Wheat (winter) (winter wheat [5]; [15]): 50
Plant response rating, Wheat (winter) (winter wheat [5]; [16]): 35
Wheat (winter) plant response rating (0 to 100 scale) (winter wheat [5]; Rate 250 g/ha): 60
Plant response rating, Wheat (winter) (winter wheat [5]; [17]): 95
Plant response rating, Wild oat (wild oat [6]; [15]): 50
Plant response rating, Wild oat (wild oat [6]; [16]): 50
Wild oat plant response rating (0 to 100 scale) (wild oat [6]; Rate 250 g/ha): 60
Plant response rating, Wild oat (wild oat [6]; [17]): 100
Rice plant response rating (rice; [11]): 0
Rice plant response rating (rice; [12]): 0
Rice plant response rating (rice; [13]): 5
Plant response rating, Rice (rice; [14]): 8
Plant response rating Johnsongrass (Johnson grass; [7]): 10
Plant response rating Johnsongrass (Johnson grass; [8]): 40
Plant response rating Johnsongrass (Johnson grass; [9]): 65
Plant response rating Johnsongrass (Johnson grass; [10]): 90
Plant response rating Johnsongrass (Johnson grass; Rate 250 g/ha): 98
Plant response rating Johnsongrass (Johnson grass; Rate 500 g/ha): 100
Plant response rating, Green foxtail (green foxtail; [15]): 60
Plant response rating, Green foxtail (green foxtail; [16]): 100
Green foxtail plant response rating (0 to 100 scale) (green foxtail; Rate 250 g/ha): 100
Plant response rating, I. Ryegrass (Italian ryegrass; [15]): 70
Plant response rating, I. Ryegrass (Italian ryegrass; [16]): 100
I. Ryegrass plant response rating (0 to 100 scale) (Italian ryegrass; Rate 250 g/ha): 100
Plant response rating, I. Ryegrass (Italian ryegrass; [17]): 100
Plant response rating, Alexandergrass (Alexandergrass; [7]): 20
Plant response rating, Alexandergrass (Alexandergrass; [8]): 90
Plant response rating, Alexandergrass (Alexandergrass; [9]): 98
Plant response rating, Alexandergrass (Alexandergrass; [10]): 100
Plant response rating, Alexandergrass (Alexandergrass; Rate 250 g/ha): 100
Plant response rating, Alexandergrass (Alexandergrass; Rate 500 g/ha): 100

C=CCn1c(=O)on(C(=O)N(c2ccc(F)cc2F)C(C)C)c1=O [Compound 151]
Plant response rating, Tall Mallow (tall mallow; [7]): 0
Plant response rating, Tall Mallow (tall mallow; [8]): 0
Tall Mallow plant response rating (tall mallow; [9]): 0
Tall Mallow plant response rating (tall mallow; [10]): 75
Plant response rating, Tall Mallow (tall mallow; Rate 250 g/ha): 85
Plant response rating, Tall Mallow (tall mallow; Rate 500 g/ha): 85
Plant response rating, Wheat (winter) (winter wheat [1]; Rate 31 g/ha, 0 no effect, 100 complete control): 10
Plant response rating, Wheat (winter) (winter wheat [1]; Rate 62 g/ha): 10
Plant response rating, Wheat (winter) (winter wheat [1]; Rate 125 g/ha): 70
S. Flatsedge plant response rating (smallflower flatsedge; [26]): 0
S. Flatsedge plant response rating (smallflower flatsedge; [27]): 0
Plant response rating, S. Flatsedge (smallflower flatsedge; [28]): 0
S. Flatsedge plant response rating (smallflower flatsedge; [29]): 8
Plant response rating, Barley (winter) (winter barley; [30]): 10
Plant response rating, Barley (winter) (winter barley; [15]): 10
Plant response rating, Barley (winter) (winter barley; [16]): 20
Blackgrass plant response rating (blackgrass [2]; [18]): 8
Blackgrass plant response rating (blackgrass [2]; [19]): 8
Blackgrass plant response rating (0 to 10 scale) (blackgrass [2]; [20]): 9
Blackgrass plant response rating (blackgrass [2]; [21]): 10
Blackgrass plant response rating (blackgrass [2]; [22]): 10
Blackgrass plant response rating (blackgrass [2]; [23]): 8
Plant response rating, Blackgrass (blackgrass [2]; [24]): 8
Blackgrass plant response rating (blackgrass [2]; [25]): 9
Wild oats plant response rating (wild oat [3]; [19]): 8
Wild oats plant response rating (0 to 10 scale) (wild oat [3]; [20]): 9
Wild oats plant response rating (wild oat [3]; [21]): 10
Wild oats plant response rating (wild oat [3]; [22]): 10
Plant response rating, Wild oats (wild oat [3]; [24]): 6
Wild oats plant response rating (wild oat [3]; [25]): 8
Plant response rating, Blackgrass (blackgrass [4]; [30]): 30
Plant response rating, Blackgrass (blackgrass [4]; [15]): 45
Plant response rating, Blackgrass (blackgrass [4]; [16]): 75
Barnyardgrass plant response rating (bamyardgrass; [26]): 0
Barnyardgrass plant response rating (bamyardgrass; [27]): 0
Plant response rating, Barnyardgrass (bamyardgrass; [28]): 0
Barnyardgrass plant response rating (bamyardgrass; Rate 500 g/ha, listed under Postemergence (flood test species), scale 0 to 10, 0 no effect, 10 complete control): 8
Plant response rating, Surinam grass (surinam grass; [7]): 30
Plant response rating, Surinam grass (surinam grass; [8]): 30
Surinam grass plant response rating (surinam grass; [9]): 85
Surinam grass plant response rating (surinam grass; [10]): 100
Plant response rating, Surinam grass (surinam grass; Rate 250 g/ha): 100
Plant response rating, Surinam grass (surinam grass; Rate 500 g/ha): 100
Plant response rating, Wheat (winter) (winter wheat [5]; [30]): 0
Plant response rating, Wheat (winter) (winter wheat [5]; [15]): 0
Plant response rating, Wheat (winter) (winter wheat [5]; [16]): 10
Plant response rating, Wild oat (wild oat [6]; [30]): 10
Plant response rating, Wild oat (wild oat [6]; [15]): 10
Plant response rating, Wild oat (wild oat [6]; [16]): 20
Rice plant response rating (rice; [26]): 0
Rice plant response rating (rice; [27]): 0
Plant response rating, Rice (rice; [28]): 0
Rice plant response rating (rice; [29]): 0
Plant response rating Johnsongrass (Johnson grass; [7]): 0
Plant response rating Johnsongrass (Johnson grass; [8]): 0
Plant response rating Johnsongrass (Johnson grass; [9]): 40
Plant response rating Johnsongrass (Johnson grass; [10]): 50
Plant response rating Johnsongrass (Johnson grass; Rate 250 g/ha): 50
Plant response rating Johnsongrass (Johnson grass; Rate 500 g/ha): 100
Plant response rating, Green foxtail (green foxtail; [30]): 20
Plant response rating, Green foxtail (green foxtail; [15]): 30
Plant response rating, Green foxtail (green foxtail; [16]): 80
Plant response rating, I. Ryegrass (Italian ryegrass; [30]): 20
Plant response rating, I. Ryegrass (Italian ryegrass; [15]): 30
Plant response rating, I. Ryegrass (Italian ryegrass; [16]): 50
Plant response rating, Alexandergrass (Alexandergrass; [7]): 40
Plant response rating, Alexandergrass (Alexandergrass; [8]): 40
Plant response rating, Alexandergrass (Alexandergrass; [9]): 98
Plant response rating, Alexandergrass (Alexandergrass; [10]): 98
Plant response rating, Alexandergrass (Alexandergrass; Rate 250 g/ha): 100
Plant response rating, Alexandergrass (Alexandergrass; Rate 500 g/ha): 100
